pIC50: −log10 of the molar value. Where a name gives a salt, the structure may show the parent alone. Read-outs that look alike come from different tables or passages of the source.
What was measured:
[1] = test system: Phosphorylated Ribosomal Protein S6 (RPS6) in THP-1 cells; assay: THP-1 RPS6 ELISA assay; format: cell-based, Human; conditions: 2 hours compound, 10 nM MCP-1 for 15 minutes, Phospho-RPS6 ELISA, read-out: PI3Kγ_THP1_RPS6_ELISA IC50
Description: Example A. THP-1 RPS6 ELISA Assay
To measure the Phosphorylated Ribosomal Protein S6 (RPS6) in cell lysates, THP-1 cells (Human Acute Monocytic Leukemia) are purchased from ATCC (Manassas, Va.) and maintained in RPMI with 10% FBS (Gibco/Life Technologies, Carlsbad, Calif.). For the assay, THP-1 cells are serum starved overnight in RPMI, then plated in RPMI (2×10^5 cells/well in 90 μL) into 96-well flat-bottom tissue culture treated plates (Corning, Corning, N.Y.), in the presence or absence of a concentration range of test compounds. Covered plates are incubated for 2 hours at 37° C., 5% CO2 then treated with or without 10 nM MCP-1 (MYBioSource, San Diego, Calif.) for 15 minutes at 37° C., 5% CO2. Plates are centrifuged at 1600 RPM and supernatants are removed. Cells are lysed in Lysis Buffer (Cell Signaling, Danvers, Mass.) with Protease Inhibitor (Calbiochem/EMD, Germany), PMSF (Sigma, St Louis Mo.), HALTS (Thermo Fisher, Rockford, Ill.) for 30 min on wet ice. Cell lysates are frozen at −80° C. before testing. The lysates are tested in the Human/Mouse/Rat Phospho-RPS6 ELISA (R&D Systems, Inc. Minn, Minn.). The plate is measured using a microplate reader (SpectraMax M5—Molecular Devices, LLC Sunnyvale, Calif.) set to 450 nm with a wavelength correction of 540. IC50 determination is performed by fitting the curve of inhibitor percent inhibition versus the log of the inhibitor concentration using the GraphPad Prism 5.0 software.

PI3Kδ (p110δ/p85α) = PI3Kδ (p110δ/p85α) (Homo sapiens (Human), UniProt O00329); assay: PI3Kδ scintillation proximity assay; format: biochemical; conditions: recombinant human PI3Kδ 3.4 nM, 20 μM PIP2, 2 μM ATP, 120 min, room temperature
Chain of PI3Kδ (p110δ/p85α) (O00329 whole entry): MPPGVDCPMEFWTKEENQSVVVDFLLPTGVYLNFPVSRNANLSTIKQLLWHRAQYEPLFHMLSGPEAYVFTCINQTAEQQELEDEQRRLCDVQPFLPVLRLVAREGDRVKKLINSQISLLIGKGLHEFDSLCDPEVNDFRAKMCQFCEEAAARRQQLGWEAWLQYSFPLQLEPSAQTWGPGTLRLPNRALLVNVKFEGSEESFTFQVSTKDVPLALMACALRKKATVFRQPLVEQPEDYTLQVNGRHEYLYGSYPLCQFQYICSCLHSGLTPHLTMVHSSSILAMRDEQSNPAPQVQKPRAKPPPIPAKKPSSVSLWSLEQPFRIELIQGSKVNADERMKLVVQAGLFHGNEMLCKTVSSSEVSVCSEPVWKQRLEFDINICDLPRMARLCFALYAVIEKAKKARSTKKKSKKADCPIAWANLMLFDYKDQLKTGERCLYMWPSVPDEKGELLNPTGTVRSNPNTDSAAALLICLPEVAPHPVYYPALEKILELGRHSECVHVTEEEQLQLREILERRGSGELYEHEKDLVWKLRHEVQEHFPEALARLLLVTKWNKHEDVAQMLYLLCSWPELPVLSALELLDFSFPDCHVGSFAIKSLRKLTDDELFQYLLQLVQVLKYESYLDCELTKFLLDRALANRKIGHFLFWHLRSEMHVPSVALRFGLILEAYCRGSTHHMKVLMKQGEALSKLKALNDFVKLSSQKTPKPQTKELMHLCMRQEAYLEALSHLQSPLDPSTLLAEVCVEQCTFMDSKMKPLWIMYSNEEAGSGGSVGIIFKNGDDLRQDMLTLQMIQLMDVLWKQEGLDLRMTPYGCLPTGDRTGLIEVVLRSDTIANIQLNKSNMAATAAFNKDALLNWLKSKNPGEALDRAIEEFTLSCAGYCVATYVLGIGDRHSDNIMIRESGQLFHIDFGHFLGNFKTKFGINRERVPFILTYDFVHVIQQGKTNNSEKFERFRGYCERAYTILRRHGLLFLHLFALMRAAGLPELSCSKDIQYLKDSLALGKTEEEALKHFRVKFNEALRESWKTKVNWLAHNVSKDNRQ
Chain of PI3Kδ (p110δ/p85α) (P27986 whole entry partner): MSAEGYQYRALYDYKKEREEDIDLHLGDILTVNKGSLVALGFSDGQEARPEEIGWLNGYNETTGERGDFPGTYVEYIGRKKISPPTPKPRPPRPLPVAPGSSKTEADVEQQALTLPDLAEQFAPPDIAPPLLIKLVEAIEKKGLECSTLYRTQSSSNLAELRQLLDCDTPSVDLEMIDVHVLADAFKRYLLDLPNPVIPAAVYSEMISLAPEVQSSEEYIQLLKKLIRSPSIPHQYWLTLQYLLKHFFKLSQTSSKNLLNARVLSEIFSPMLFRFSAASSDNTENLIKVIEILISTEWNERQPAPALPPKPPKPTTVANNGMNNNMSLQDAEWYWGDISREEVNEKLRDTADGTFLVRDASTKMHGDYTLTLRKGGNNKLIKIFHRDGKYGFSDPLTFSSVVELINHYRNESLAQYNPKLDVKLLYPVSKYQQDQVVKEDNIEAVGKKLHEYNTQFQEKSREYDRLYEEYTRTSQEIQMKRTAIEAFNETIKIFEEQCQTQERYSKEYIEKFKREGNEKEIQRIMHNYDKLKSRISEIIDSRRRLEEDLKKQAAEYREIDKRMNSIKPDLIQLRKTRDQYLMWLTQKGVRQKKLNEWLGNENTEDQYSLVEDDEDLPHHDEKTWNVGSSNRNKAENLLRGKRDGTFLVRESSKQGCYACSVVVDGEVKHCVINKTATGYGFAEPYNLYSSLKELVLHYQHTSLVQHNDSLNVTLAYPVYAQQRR
Text: Example C. PI3Kδ Scintillation Proximity Assay Materials: [γ-^33P]ATP (10 mCi/mL) and Wheat Germ Agglutinin (WGA) YSi SPA Scintillation Beads was purchased from Perkin Elmer (Waltham, Mass.). Lipid kinase substrate, D-myo-Phosphatidylinositol 4,5-bisphosphate (PtdIns(4,5)P2)D (+)-sn-1,2-di-O-octanoylglyceryl, 3-O-phospho linked (PIP2), CAS 204858-53-7, was purchased from Echelon Biosciences (Salt Lake City, Utah). PI3Kδ (p110δ/p85α) Recombinant Human Protein was purchased from Eurofins (St Charles, Mo.). ATP, MgCl2, DTT, EDTA, MOPS and CHAPS were purchased from Sigma Aldrich (St. Louis, Mo.). The kinase reaction was conducted in polystyrene 384-well Greiner Bio-one white plate from Thermo Fisher Scientific in a final volume of 25 μL. Inhibitors were first diluted serially in DMSO and added to the plate wells before the addition of other reaction components. The final concentration of DMSO in the assay was 2%. The PI3Kδ assay was carried out at room temperature in 20 mM MOPS, pH 6.7, 10 mM MgCl2, 5 mM DTT and CHAPS 0.03%. Reactions were initiated by the addition of ATP, the final reaction mixture consisted of 20 μM PIP2, 2 μM ATP, 0.5 μCi [γ-^33P] ATP, 3.4 nM PI3Kδ. Reactions were incubated for 120 min and terminated by the addition of 40 μL SPA beads suspended in quench buffer: 163 mM potassium phosphate pH 7.8, 20% glycerol, 25 mM EDTA. The final concentration of SPA beads is 1.0 mg/mL. After the plate sealing, plates were shaken overnight at room temperature and centrifuged at 1500 rpm for 10 min, the radioactivity of the product was determined by scintillation counting on Topcount (PerkinElmer). IC50 determination was performed by fitting the curve of percent of the solvent control activity versus the log of the inhibitor concentration using the GraphPad Prism 6.0 software.

PI3Kγ (p110γ) = PI3Kγ (p110γ) (Homo sapiens (Human), UniProt P48736); assay: PI3K-γ scintillation proximity assay; format: biochemical; conditions: recombinant human PI3Kγ 13 nM, 20 μM PIP2, 2 μM ATP, 120 min, room temperature
Chain of PI3Kγ (p110γ) (P48736 whole entry): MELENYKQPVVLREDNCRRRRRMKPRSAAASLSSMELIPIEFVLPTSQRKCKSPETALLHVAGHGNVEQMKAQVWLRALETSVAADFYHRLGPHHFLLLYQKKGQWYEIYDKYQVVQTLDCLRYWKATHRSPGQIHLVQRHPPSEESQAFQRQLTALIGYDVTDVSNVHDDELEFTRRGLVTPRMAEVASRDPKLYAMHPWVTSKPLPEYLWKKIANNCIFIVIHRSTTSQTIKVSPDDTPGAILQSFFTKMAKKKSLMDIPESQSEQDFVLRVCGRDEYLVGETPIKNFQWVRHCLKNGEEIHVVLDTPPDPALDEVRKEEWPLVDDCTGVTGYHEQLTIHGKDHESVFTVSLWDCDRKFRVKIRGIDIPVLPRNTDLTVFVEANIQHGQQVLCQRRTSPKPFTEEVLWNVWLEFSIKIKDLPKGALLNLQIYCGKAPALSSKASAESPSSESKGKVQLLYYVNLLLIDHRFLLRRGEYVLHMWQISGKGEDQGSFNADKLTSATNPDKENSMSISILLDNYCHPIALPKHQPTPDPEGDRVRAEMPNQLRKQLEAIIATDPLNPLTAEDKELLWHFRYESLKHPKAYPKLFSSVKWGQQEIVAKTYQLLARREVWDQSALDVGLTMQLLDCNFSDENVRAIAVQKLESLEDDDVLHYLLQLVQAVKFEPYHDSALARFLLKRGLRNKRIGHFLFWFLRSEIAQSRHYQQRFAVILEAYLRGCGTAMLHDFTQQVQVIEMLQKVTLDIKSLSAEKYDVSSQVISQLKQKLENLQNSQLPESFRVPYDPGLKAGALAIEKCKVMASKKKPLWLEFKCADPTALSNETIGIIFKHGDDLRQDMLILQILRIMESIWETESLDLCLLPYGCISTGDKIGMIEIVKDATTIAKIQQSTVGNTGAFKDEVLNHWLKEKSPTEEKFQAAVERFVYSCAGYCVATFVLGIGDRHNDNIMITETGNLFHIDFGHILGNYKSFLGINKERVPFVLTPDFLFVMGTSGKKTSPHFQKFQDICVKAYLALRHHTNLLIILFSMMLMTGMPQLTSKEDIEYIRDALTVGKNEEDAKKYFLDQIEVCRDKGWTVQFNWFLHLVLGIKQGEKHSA
Text: Example B. PI3K-γ Scintillation Proximity Assay Materials: [γ-^33P]ATP (10 mCi/mL) and Wheat Germ Agglutinin (WGA) YSi SPA Scintillation Beads was purchased from Perkin Elmer (Waltham, Mass.). Lipid kinase substrate, D-myo-Phosphatidylinositol 4,5-bisphosphate (PtdIns(4,5)P2)D (+)-sn-1,2-di-O-octanoylglyceryl, 3-O-phospho linked (PIP2), CAS 204858-53-7, was purchased from Echelon Biosciences (Salt Lake City, Utah). PI3Kγ (p110γ) Recombinant Human Protein was purchased from Life technology (Grand Island, N.Y.). ATP, MgCl2, DTT, EDTA, MOPS and CHAPS were purchased from Sigma Aldrich (St. Louis, Mo.). The kinase reaction was conducted in polystyrene 384-well Greiner Bio-one white plate from Thermo Fisher Scientific in a final volume of 25 μL. Inhibitors were first diluted serially in DMSO and added to the plate wells before the addition of other reaction components. The final concentration of DMSO in the assay was 2%. The PI3Kγ assay was carried out at room temperature in 20 mM MOPS, pH 6.7, 10 mM MgCl2, 5 mM DTT and CHAPS 0.03%. Reactions were initiated by the addition of ATP, the final reaction mixture consisted of 20 μM PIP2, 2 μM ATP, 0.5 μCi [γ-^33P] ATP, 13 nM PI3Kγ. Reactions were incubated for 120 min and terminated by the addition of 40 μL SPA beads suspended in quench buffer: 163 mM potassium phosphate pH 7.8, 20% glycerol, 25 mM EDTA. The final concentration of SPA beads is 1.0 mg/mL. After the plate sealing, plates were shaken overnight at room temperature and centrifuged at 1500 rpm for 10 min, the radioactivity of the product was determined by scintillation counting on Topcount (Perkin-Elmer). IC50 determination was performed by fitting the curve of percent of the solvent control activity versus the log of the inhibitor concentration using the GraphPad Prism 6.0 software.

[2] = Homo sapiens, THP-1, serum starved THP-1 cells

Structure (SMILES) | pIC50 [1, 2] | pIC50 (PI3Kδ (p110δ/p85α)) | pIC50 (PI3Kγ (p110γ)) | pIC50 ([1]; serum starved THP-1 cells)
Cc1[nH]c(-c2cc(-c3cc4c(c(S(C)(=O)=O)c3)C(=O)N([C@@H](C)C3CC3)C4)ccn2)nc1C(=O)NC1CC(O)C1 (mixture of isomers) [Example 7f, (S)-2-(4-(2-(1-Cyclopropylethyl)-7-(methylsulfonyl)-1-oxoisoindolin-5-yl)pyridin-2-yl)-N-(3-hydroxycyclobutyl)-4-methyl-1H-imidazole-5-carboxamide, trifluoroacetate salt (mixture of two diastereomers)] | < 6.00 | 6.30 to 7.00 | > 7.00 | –
Cc1[nH]c(-c2cc(-c3cc4c(c(S(C)(=O)=O)c3)C(=O)N([C@@H](C)C3CC3)C4)ccn2)nc1C(=O)NC1CCOC1 (mixture of isomers) [Example 7n, 2-(4-(2-((S)-1-Cyclopropylethyl)-7-(methylsulfonyl)-1-oxoisoindolin-5-yl)pyridin-2-yl)-4-methyl-N-(tetrahydrofuran-3-yl)-1H-imidazole-5-carboxamide, trifluoroacetate salt (mixture of two diastereomers)] | 6.30 to 7.00 | 6.30 to 7.00 | > 7.00 | –
Cc1nc(-c2cc(-c3cc4c(c(S(C)(=O)=O)c3)C(=O)N([C@@H](C)C3CC3)C4)ccn2)[nH]c1C(=O)NC(C)C(F)(F)F (single isomer, unassigned) [Example 7g] | – | 6.30 to 7.00 | > 7.00 | < 6.00
CCC(C)NC(=O)c1[nH]c(-c2cc(-c3cc4c(c(S(C)(=O)=O)c3)C(=O)N([C@@H](C)C3CC3)C4)ccn2)nc1C (single isomer, unassigned) [Example 7l] | – | 6.30 to 7.00 | > 7.00 | 6.30 to 7.00
Cc1nc(-c2cc(-c3cc4c(c(S(C)(=N)=O)c3)C(=O)N([C@@H](C)C3CC3)C4)ccn2)[nH]c1C (single isomer, unassigned) [Example 22] | 6.00 to 6.30 | 5.70 to 6.30 | > 7.00 | –
CN=S(C)(=O)c1cc(-c2ccnc(-c3nc(C)c(C)[nH]3)c2)cc2c1C(=O)N([C@@H](C)C1CC1)C2 (single isomer, unassigned) [Example 25] | 6.00 to 6.30 | 5.70 to 6.30 | > 7.00 | –
Cc1cnc(-c2cc(-c3cc4c(c(N=S(C)(C)=O)c3)C(=O)N([C@@H](C)C3CC3)C4)ccn2)[nH]1 (single isomer, unassigned) [Example 26] | < 6.00 | < 5.70 | > 7.00 | –
Cc1nc(-c2cc(-c3cc(Cl)c4c(c3)CN([C@@H](C)C3CC3)C4=O)ccn2)[nH]c1C [Example 1, (S)-7-Chloro-2-(1-cyclopropylethyl)-5-(2-(4,5-dimethyl-1H-imidazol-2-yl)pyridin-4-yl)isoindolin-1-one] | 6.00 to 6.30 | 6.30 to 7.00 | > 7.00 | –
Cc1nc(-c2cc(-c3cc4c(c(S(C)(=O)=O)c3)C(=O)N([C@@H](C)C3CC3)C4)ccn2)[nH]c1C [Example 2, (S)-2-(1-Cyclopropylethyl)-5-(2-(4,5-dimethyl-1H-imidazol-2-yl)pyridin-4-yl)-7-(methylsulfonyl)isoindolin-1-one Trifluoroacetate Salt] | 6.00 to 6.30 | 6.30 to 7.00 | > 7.00 | –
Cc1[nH]c(-c2cc(-c3ccc4c(c3)CN([C@@H](C)C3CC3)C4=O)ccn2)nc1C(=O)NC(C)C [Example 3, (S)-2-(4-(2-(1-Cyclopropylethyl)-1-oxoisoindolin-5-yl)pyridin-2-yl)-N-isopropyl-5-methyl-1H-imidazole-4-carboxamide Trifluoroacetate Salt] | < 6.00 | 5.70 to 6.30 | > 7.00 | –
Cc1nc(-c2cc(-c3cc4c(c(S(C)(=O)=O)c3)C(=O)N([C@@H](C)C3CC3)C4)cnn2)[nH]c1C [Example 8, (S)-2-(1-Cyclopropylethyl)-5-(6-(4,5-dimethyl-1H-imidazol-2-yl)pyridazin-4-yl)-7-(methylsulfonyl)isoindolin-1-one Trifluoroacetate Salt] | – | < 5.70 | > 7.00 | –
Cc1cc(-c2cc(-c3ccc4c(c3)CN([C@@H](C)C3CC3)C4=O)cnn2)[nH]n1 [Example 11, (S)-2-(1-Cyclopropylethyl)-5-(6-(3-methyl-1H-pyrazol-5-yl)pyridazin-4-yl)isoindolin-1-one Trifluoroacetate Salt] | – | < 5.70 | 5.70 to 6.30 | –
Cc1nnc(-c2cc(-c3ccc4c(c3)CN([C@@H](C)C3CC3)C4=O)ccn2)[nH]1 [Example 13, (S)-2-(1-Cyclopropylethyl)-5-(2-(5-methyl-4H-1,2,4-triazol-3-yl)pyridin-4-yl)isoindolin-1-one] | – | < 5.70 | > 7.00 | –
Cc1nc(-c2cc(-c3cc4c(c(C(O)CO)c3)C(=O)N([C@@H](C)C3CC3)C4)cnn2)[nH]c1C (stereo partly drawn) [Example 19, 2-((S)-1-Cyclopropylethyl)-7-(1,2-dihydroxyethyl)-5-(6-(4,5-dimethyl-1H-imidazol-2-yl)pyridazin-4-yl)isoindolin-1-one, Trifluoroacetate Salt] | – | < 5.70 | > 7.00 | –
Cc1nc(-c2cc(-c3cc4c(c(S(C)(=N)=O)c3)C(=O)N([C@@H](C)C3CC3)C4)ccn2)[nH]c1C (stereo partly drawn) [Example 21, 2-((S)-1-Cyclopropylethyl)-5-(2-(4,5-dimethyl-1H-imidazol-2-yl)pyridin-4-yl)-7-(S-methylsulfonimidoyl)isoindolin-1-one] | – | – | – | 6.00 to 6.30
CN=S(C)(=O)c1cc(-c2ccnc(-c3nc(C)c(C)[nH]3)c2)cc2c1C(=O)N([C@@H](C)C1CC1)C2 (stereo partly drawn) [Example 24, 2-((S)-1-Cyclopropylethyl)-5-(2-(4,5-dimethyl-1H-imidazol-2-yl)pyridin-4-yl)-7-(N,S-dimethylsulfonimidoyl)isoindolin-1-one] | – | – | – | 6.30 to 7.00

Source: patent publication US11396502B2, “Substituted heterocyclic derivatives as PI3K inhibitors” (Incyte Corporation, priority 2018, dated 2022)
